Assay results reported in the NIST ThermoML archive (doi:10.1016/j.fluid.2014.09.014).

Assay: refractive index (other wavelength) (dimensionless); xn = mol fraction of the nth substance listed
Settings: 298.15 K, 101 kPa, Liquid, Standard Abbe refractometry

CC(C)OC(C)C [diisopropyl ether] + CO
refractive index
Settings	Wavelength=435.8 nm	Wavelength=486.1 nm	Wavelength=546.1 nm	Wavelength=587.6 nm
x2 = 0	–	1.36965	1.36683	1.36535
x2 = 0.0423	–	1.36963	1.36681	1.36534
x2 = 0.0424	1.37303	1.36961	1.36679	1.36531
x2 = 0.082	1.373	1.36958	1.36677	1.36528
x2 = 0.0822	1.373	1.36957	1.36678	1.3653
x2 = 0.1171	1.37283	1.36942	1.36661	1.36514
x2 = 0.1271	1.37286	1.36944	1.36664	1.36515
x2 = 0.1827	1.37246	1.36905	1.36626	1.36478
x2 = 0.2162	1.37305	1.36963	1.36681	1.36534
x2 = 0.251	1.37234	1.36895	1.36616	1.3647
x2 = 0.3298	1.37153	1.36815	1.36537	1.36391
x2 = 0.3577	1.37006	1.36672	1.36396	1.36251
x2 = 0.4497	1.36914	1.36584	1.36306	1.36163
x2 = 0.4525	1.36969	1.36637	1.3636	–
x2 = 0.522	1.36737	1.36409	1.36134	–
x2 = 0.5543	1.36692	1.36368	1.36093	–
x2 = 0.609	1.36396	–	1.35803	–
x2 = 0.6529	1.36244	1.35923	1.35655	–
x2 = 0.7504	1.35846	1.35533	1.3527	–
x2 = 0.804	1.35412	1.35108	1.34846	–
x2 = 0.807	1.35401	1.35096	1.34834	–
x2 = 0.8727	1.34872	1.34572	1.34316	–
x2 = 0.9233	1.34165	1.33873	1.33624	–
x2 = 0.9253	1.34355	1.3406	1.33811	–
x2 = 0.9527	1.34033	1.3374	1.33494	–
x2 = 0.9773	1.3368	1.3339	1.33146	–
x2 = 0.989	1.3356	1.3327	1.33028	–
x2 = 0.9964	1.3342	1.33128	1.32888	–
